According to ChEMBL document CHEMBL1132834, “Phenylpropenamide derivatives as inhibitors of hepatitis B virus replication” (Bioorg Med Chem Lett, 2000):

Experiments:
[1] = Reduction of viable cell numbers by 50% was evaluated by HepAD38 cellular assay; assay type: ADME, cell-based; details: human, HepAD38 cells; read-out: TC50 (the source's name)
Newcastle disease virus = assay: Inhibition of Newcastles disease virus replication by 50% (no effect at this concentration); assay type: functional, organism-based; details: avian paramyxovirus 1
[2] = Inhibition of Duck HBV replication by 50% (no effect at this concentration); assay type: functional, organism-based; details: Anas sp.
[3] = tested on: Human immunodeficiency virus 1; assay: Inhibition of HIV-1 replication by 50% (no effect at this concentration); assay type: functional, organism-based
[4] = Inhibition of Woodchuck HBV replication by 50% (no effect at this concentration); assay type: functional, organism-based; details: Marmota monax
Human alphaherpesvirus 1 = assay: Inhibition of HSV-1 replication by 50% (no effect at this concentration); assay type: functional, organism-based
[5] = tested on: Vesicular stomatitis virus; assay: Inhibition of Vesicular stomatis virus replication by 50% (no effect at this concentration); assay type: functional, organism-based
[6] = (§1) Inhibition of hepatitis B virus replication in the HepAD38 cell line.; assay type: functional, cell-based; details: Homo sapiens
HepG2 = assay: as §1; assay type: functional, cell-based; details: Homo sapiens
[7] = Concentration which inhibits hepatitis B virus replication in the HepAD38 cell line.; assay type: functional; details: Homo sapiens

Row | Structure (SMILES) | CC50 [1] [µM] | EC50 (Newcastle disease virus) [µM] | EC50 [2] [µM] | EC50 [3] [µM] | EC50 [4] [µM] | EC50 (Human alphaherpesvirus 1) [µM] | EC50 [5] [µM] | EC50 [6] [µM] | EC50 (HepG2) [µM] | EC90 [7] [µM]
1 | O=C(N/C(C(=O)N1CCCCC1)=C(/Cl)c1ccc(Cl)cc1)c1ccccc1 | 45 | > 81 | > 81 | > 81 | > 81 | > 81 | > 81 |  |  | 
2 | O=C(N/C(C(=O)N1CCCCC1)=C(/Br)c1ccc(F)cc1)c1ccccc1 | > 70 | > 81 | > 81 | > 81 | > 81 | > 81 | > 81 | 3.9 |  | 
3 | O=C(Nc1nccs1)/C(NC(=O)c1ccccc1)=C(\Cl)c1ccccc1 |  |  |  |  |  |  |  |  | > 75 | 
4 | O=C(N/C(C(=O)N1CCCCC1)=C(/Cl)c1ccccc1F)c1ccccc1 | 31 | > 81 | > 81 | > 81 | > 81 | > 81 | > 81 |  |  | 
5 | Cc1ccc(C(=O)N/C(C(=O)N2CCCCC2)=C(/Br)c2ccccc2)cc1 | > 70 | > 81 | > 81 | > 81 | > 81 | > 81 | > 81 | 2.1 |  | 12
6 | COc1ccccc1/C(Br)=C(\NC(=O)c1ccc([N+](=O)[O-])cc1)C(=O)N1CCCCC1 | > 61 | > 81 | > 81 | > 81 | > 81 | > 81 | > 81 | 0.13 |  | 0.92
7 | O=C(N/C(C(=O)N1CCCCC1)=C(/Br)c1ccccc1)c1ccc(C(F)(F)F)cc1 | > 62 | > 81 | > 81 | > 81 | > 81 | > 81 | > 81 | 5 |  | 34
8 | O=C(N/C(C(=O)N1CCCCC1)=C(/Cl)c1ccc(F)cc1)c1ccccc1 | > 75 | > 81 | > 81 | > 81 | > 81 | > 81 | > 81 | 3.1 |  | 28
9 | O=C(N/C(C(=O)N1CCCCC1)=C(/Br)c1ccccc1F)c1ccccc1 | 70 | > 81 | > 81 | > 81 | > 81 | > 81 | > 81 | 1.5 |  | 
10 | O=C(N/C(C(=O)N1CCCCCC1)=C(/Cl)c1ccccc1)c1ccccc1 |  |  |  |  |  |  |  |  | > 75 | 
11 | CCN(CC)C(=O)/C(NC(=O)c1ccccc1)=C(\Cl)c1ccccc1 |  |  |  |  |  |  |  |  | > 75 | 
12 | COc1ccc(C(=O)N/C(C(=O)N2CCCCC2)=C(/Br)c2ccccc2)cc1 | > 67 | > 81 | > 81 | > 81 | > 81 | > 81 | > 81 | 1.9 |  | 19
13 | O=C(N/C(C(=O)N1CCCCC1)=C(/Br)c1ccc(Cl)cc1)c1ccccc1 | 55 | > 81 | > 81 | > 81 | > 81 | > 81 | > 81 | 11 |  | 
14 | O=C(NCc1ccccc1)/C(NC(=O)c1ccccc1)=C(\Cl)c1ccccc1 |  |  |  |  |  |  |  |  | > 75 | 
15 | O=C(N/C(C(=O)N1CCCCC1)=C(/Br)c1ccccc1F)c1ccc([N+](=O)[O-])cc1 | 42 | > 81 | > 81 | > 81 | > 81 | > 81 | > 81 | 0.31 |  | 1.8
16 | O=C(N/C(C(=O)N1CCCCC1)=C(/Br)c1ccccc1)c1ccccc1 | > 72 | > 81 | > 81 | > 81 | > 81 | > 81 | > 81 | 1.3 |  | 21
17 | Cc1ccccc1/C(Br)=C(\NC(=O)c1ccc([N+](=O)[O-])cc1)C(=O)N1CCCCC1 | > 63 | > 81 | > 81 | > 81 | > 81 | > 81 | > 81 | 0.6 |  | 4.6
18 | O=C(N/C(C(=O)N1CCCCC1)=C(/Cl)c1ccccc1)c1ccccc1 | > 81 | > 81 | > 81 | > 81 | > 81 | > 81 | > 81 | 1.2 |  | 13
